In ChEMBL document CHEMBL1201862, “PubChem BioAssay data set” (2004):
Active and inactive are the calls of the source.

Assays:
[1] = biological target: T1, Aminopeptidase N (Plasmodium falciparum FcB1/Columbia, UniProt O96935); assay: malaria alanyl aminopeptidase activity blockers – biochemical, fluorogenic H-Leu-NHMec substrate, 1536-well (AID 1445); design: species or system Plasmodium falciparum 3D7, 3D7
T1 sequence (O96935 whole entry): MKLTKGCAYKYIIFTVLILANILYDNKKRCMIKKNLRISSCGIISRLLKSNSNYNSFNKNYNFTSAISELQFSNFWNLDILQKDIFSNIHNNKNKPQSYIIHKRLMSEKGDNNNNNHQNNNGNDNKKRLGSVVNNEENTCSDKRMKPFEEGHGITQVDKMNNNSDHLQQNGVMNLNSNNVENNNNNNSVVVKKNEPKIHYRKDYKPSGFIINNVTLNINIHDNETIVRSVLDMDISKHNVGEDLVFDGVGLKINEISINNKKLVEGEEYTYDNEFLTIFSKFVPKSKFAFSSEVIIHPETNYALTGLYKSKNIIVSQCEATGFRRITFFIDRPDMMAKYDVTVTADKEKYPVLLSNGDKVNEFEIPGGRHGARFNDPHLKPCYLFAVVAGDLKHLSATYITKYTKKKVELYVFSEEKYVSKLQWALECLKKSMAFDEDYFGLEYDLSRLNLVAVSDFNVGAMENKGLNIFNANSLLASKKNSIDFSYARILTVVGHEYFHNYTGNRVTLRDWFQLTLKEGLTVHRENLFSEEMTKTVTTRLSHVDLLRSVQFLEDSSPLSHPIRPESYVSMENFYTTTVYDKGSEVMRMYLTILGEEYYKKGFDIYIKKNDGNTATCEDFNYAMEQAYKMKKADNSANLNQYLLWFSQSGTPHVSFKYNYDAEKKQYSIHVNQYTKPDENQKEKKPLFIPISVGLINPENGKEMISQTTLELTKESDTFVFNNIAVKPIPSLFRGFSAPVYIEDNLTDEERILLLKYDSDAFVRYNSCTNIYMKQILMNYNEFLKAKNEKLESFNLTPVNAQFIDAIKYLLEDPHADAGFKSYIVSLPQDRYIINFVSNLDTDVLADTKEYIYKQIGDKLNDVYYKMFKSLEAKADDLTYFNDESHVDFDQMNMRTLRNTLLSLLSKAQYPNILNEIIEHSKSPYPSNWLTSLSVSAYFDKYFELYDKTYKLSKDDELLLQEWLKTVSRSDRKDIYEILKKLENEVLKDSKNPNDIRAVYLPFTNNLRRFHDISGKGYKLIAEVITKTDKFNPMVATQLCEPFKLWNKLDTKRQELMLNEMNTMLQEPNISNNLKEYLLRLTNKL

[2] = biological target: Sphingosine 1-phosphate receptor 2 (Homo sapiens, UniProt O95136); assay: Dose Response Cell Based Assay for Agonists of the S1P2 Receptor. [Related pubchem assays: 729, 736, 843 ]; type: functional
[3] = biological target: Sphingosine 1-phosphate receptor 1 (Homo sapiens, UniProt P21453); assay: Fluorescence-based counterscreen assay for S1P4 agonists: Cell-based dose response high throughput screening assay to identify agonists of the Sphingosine 1-Phosphate Receptor 1 (S1P1). [Related pubchem assays (depositor defined):AID1509, AID1523, AID1801, AID463107, AID463118, AID463119, AID463122, AID463123, AID463129, AID463225, AID504400, AID504460]; type: functional
[4] = biological target: Sphingosine 1-phosphate receptor 4 (Homo sapiens, UniProt O95977); assay: Fluorescence dose response cell-based high throughput screening assay for agonists of the Sphingosine 1-Phosphate Receptor 4 (S1P4). [Related pubchem assays: 1509 (Primary screen.), 1523 (Confirmation screen in triplicates.)]; type: functional
[5] = biological target: Exodeoxyribonuclease V (Escherichia coli (strain K12), UniProt P04993+P07648+P08394); assay: RecBCD inhibition via phage-restricted bacterial growth – absorbance, V66 E. coli, mutant T4 phage, counter-screen for AddAB inhibitor project, dose response (AID 492957); type: functional, cell-based, Escherichia coli str. K-12 substr. MG1655
[6] = Counterscreen for AddAB inhibitors: absorbance-based bacterial cell-based high throughput dose response assay for inhibitors of bacterial viability. [Related pubchem assays (depositor defined):AID435030, AID449728, AID449731, AID488942, AID488955, AID488956]; type: functional
[7] = biological target: T2, Peroxisome proliferator-activated receptor gamma (Homo sapiens, UniProt P37231); assay: competitive ligand displacement at PPARg – biochemical, TR-FRET, LanthaScreen, PPARg partial agonist project, dose response (AID 504446)
T2 sequence (P37231 whole entry): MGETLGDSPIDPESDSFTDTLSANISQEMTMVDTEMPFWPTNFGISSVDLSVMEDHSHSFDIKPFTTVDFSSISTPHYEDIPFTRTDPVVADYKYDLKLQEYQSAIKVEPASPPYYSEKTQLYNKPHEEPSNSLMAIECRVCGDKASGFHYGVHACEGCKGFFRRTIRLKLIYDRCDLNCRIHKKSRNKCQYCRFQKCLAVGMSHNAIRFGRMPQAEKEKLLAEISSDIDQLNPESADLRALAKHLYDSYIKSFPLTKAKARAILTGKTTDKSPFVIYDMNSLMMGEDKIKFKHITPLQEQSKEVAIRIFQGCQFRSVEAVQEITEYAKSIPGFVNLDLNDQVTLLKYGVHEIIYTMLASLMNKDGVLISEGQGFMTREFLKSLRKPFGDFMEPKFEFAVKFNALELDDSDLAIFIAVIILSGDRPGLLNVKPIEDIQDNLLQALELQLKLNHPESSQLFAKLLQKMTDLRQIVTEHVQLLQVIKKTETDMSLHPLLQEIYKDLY

[8] = biological target: T2, Peroxisome proliferator-activated receptor gamma; assay: competitive ligand displacement at PPARg – biochemical, fluorescence polarization, PolarScreen, PPARg partial agonist project, dose response (AID 504453)
[9] = biological target: T2, Peroxisome proliferator-activated receptor gamma; assay: PPARg transcriptional activation, reporter cells – cell-based, luminescence, assay provider, dose response (AID 504447); type: functional
[10] = biological target: Troponin, cardiac muscle (Homo sapiens, UniProt P19429+P45379+P63316); assay: Fluorescence-based biochemical high throughput dose response assay for activators of the calcium sensitivity of cardiac Regulated Thin Filaments (RTF). [Related pubchem assays (depositor defined):AID493008, AID493018, AID504382, AID504383]; type: protein-complex assay
[11] = compound autofluorescence in calcium buffer – biochemical, fluorescence, no RTF in test wells, artefact control for cardiac thin filament activator project, dose response (AID 504697)
[12] = Luminescence Cell-Based Dose Response HTS to Identify Activators of Luciferase Translation or Activity in H4 […] Cells. [Related pubchem assays: 1829 (Project Summary), 1814 (Primary HTS)]; type: functional
[13] = biological target: Signal transducer and activator of transcription 1-alpha/beta (Homo sapiens, UniProt P42224); assay: STAT3 blockade with qPCR and toxicity readouts – cell-based, STAT1 panel, cytotoxicity, late-stage follow-up, panel member STAT1 Inhibition (AID 2078)
[14] = biological target: Signal transducer and activator of transcription 3 (Homo sapiens, UniProt P40763); assay: STAT3 blockade with qPCR and toxicity readouts – cell-based, STAT1 panel, cytotoxicity, late-stage follow-up, panel member STAT3 Inhibition (AID 2078)
[15] = biological target: Kappa-type opioid receptor (Homo sapiens, UniProt P41145); assay: SAR analysis of small molecule agonists of the kappa opioid receptor via a luminescent beta-arrestin assay - Set 3. [Related pubchem assays (depositor defined):AID1777, AID1785, AID1786, AID1966, AID2133, AID2136, AID2284, AID2500]; type: functional
[16] = biological target: Voltage-dependent T-type calcium channel subunit alpha-1H (Homo sapiens, UniProt O95180); assay: inhibition of CACNA1H calcium flux – cell-based, SynthLib3 library, HEK293 Cav3.2, fluorescence (AID 493041); type: functional
[17] = biological target: T3, Ubiquitin-conjugating enzyme E2 N (Homo sapiens, UniProt P61088); type: functional;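 also: Dose-response confirmation in a TR-FRET assay detecting UBC13-driven polyubiquitin chain formation, inhibition measured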
T3 sequence (P61088 whole entry): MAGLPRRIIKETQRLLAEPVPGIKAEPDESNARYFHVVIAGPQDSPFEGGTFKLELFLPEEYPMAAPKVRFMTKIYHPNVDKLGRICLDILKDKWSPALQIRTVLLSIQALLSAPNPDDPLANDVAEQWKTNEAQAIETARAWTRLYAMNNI

[18] = MIN6 cell viability loss – mouse insulinoma, cytotoxicity control, dose response (AID 2122); type: functional;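 also: confirmatory high-throughput counterscreen run to flag cytotoxic compounds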
[19] = biological target: T4, Protein RecA (Mycobacterium tuberculosis, UniProt P9WHJ3); assay: Fluorescence Cell-Free Homogeneous Dose Retest to Identify Inhibitors of RecA-Intein Splicing Activity. [Related pubchem assays (depositor defined):AID2097, AID2223, AID489010, AID492950]; type: functional
T4 sequence (P9WHJ3 whole entry): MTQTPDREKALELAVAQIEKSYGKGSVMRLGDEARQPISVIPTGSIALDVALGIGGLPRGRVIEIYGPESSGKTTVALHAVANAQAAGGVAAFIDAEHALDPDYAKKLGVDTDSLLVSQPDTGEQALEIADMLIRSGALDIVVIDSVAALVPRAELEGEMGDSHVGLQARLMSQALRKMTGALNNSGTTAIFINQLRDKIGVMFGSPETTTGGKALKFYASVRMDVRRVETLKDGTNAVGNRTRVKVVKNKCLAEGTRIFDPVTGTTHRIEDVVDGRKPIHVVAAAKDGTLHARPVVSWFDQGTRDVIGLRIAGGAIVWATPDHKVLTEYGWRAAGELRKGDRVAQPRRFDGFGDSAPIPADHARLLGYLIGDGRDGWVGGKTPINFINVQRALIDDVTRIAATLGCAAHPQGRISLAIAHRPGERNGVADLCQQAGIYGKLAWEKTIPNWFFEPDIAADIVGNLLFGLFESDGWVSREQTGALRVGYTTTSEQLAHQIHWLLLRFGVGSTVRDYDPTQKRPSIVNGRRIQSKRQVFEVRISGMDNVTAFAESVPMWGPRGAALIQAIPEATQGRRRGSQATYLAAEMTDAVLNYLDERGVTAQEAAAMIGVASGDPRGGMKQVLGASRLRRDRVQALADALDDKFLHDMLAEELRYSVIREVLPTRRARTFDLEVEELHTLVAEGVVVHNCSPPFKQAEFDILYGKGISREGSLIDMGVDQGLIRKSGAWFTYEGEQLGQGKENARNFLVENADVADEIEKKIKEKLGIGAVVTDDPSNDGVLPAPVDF

[20] = biological target: T5, Replicative DNA helicase DnaB (Mycobacterium tuberculosis, UniProt P9WMR3); assay: DnaB intein splicing inhibitors, dose response, biochemical, cell-free fluorescence (AID 449749); type: functional
T5 sequence (P9WMR3 whole entry): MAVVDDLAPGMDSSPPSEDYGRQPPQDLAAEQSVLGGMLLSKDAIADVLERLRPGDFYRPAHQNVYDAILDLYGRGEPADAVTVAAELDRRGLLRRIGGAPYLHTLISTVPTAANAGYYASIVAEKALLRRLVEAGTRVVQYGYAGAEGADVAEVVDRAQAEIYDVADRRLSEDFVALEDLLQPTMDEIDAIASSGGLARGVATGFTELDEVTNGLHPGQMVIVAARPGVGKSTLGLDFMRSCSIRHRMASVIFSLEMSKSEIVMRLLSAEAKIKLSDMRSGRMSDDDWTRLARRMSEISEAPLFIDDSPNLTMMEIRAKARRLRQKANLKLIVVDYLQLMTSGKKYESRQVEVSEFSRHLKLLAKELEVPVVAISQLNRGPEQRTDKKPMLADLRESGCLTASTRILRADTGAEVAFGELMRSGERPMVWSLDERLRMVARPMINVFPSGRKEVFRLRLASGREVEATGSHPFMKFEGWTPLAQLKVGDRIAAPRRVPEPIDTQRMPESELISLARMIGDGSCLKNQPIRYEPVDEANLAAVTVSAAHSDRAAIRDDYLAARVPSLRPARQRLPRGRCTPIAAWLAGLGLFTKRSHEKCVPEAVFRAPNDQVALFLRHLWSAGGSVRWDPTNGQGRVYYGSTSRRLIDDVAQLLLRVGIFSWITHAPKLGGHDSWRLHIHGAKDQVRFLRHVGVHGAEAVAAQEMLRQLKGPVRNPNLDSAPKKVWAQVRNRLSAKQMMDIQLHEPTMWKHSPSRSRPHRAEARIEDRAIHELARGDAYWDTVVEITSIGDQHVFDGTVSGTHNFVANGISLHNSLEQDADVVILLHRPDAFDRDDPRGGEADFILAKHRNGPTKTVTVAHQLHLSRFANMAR

[21] = decrease of insulin promoter-GFP reporter – imaging, high-content screening, mouse beta cells (AID 1628); type: functional; settings: MIN6

CC(C)n1c(=N)c(C(=O)NCCc2ccccc2)cc2c(=O)n3ccccc3nc21
IC50 [1]: 58.6 µM (active) | EC50 [2]: 4.8 µM (active) | EC50 [3]: 15.9 µM (inactive) | EC50 [4]: 5.78 µM (active)

CCOc1ccc2oc(C(=O)NNC(=O)c3ccccc3O)c(C)c2c1
IC50 [5]: > 119 µM (inactive) | IC50 [6]: > 119 µM (inactive)

Cc1ccc2nc(N3C(=O)C(O)=C(C(=O)c4ccc(C)o4)C3c3ccco3)sc2c1 (stereo unspecified)
IC50 [7]: 2.6 µM (active) | IC50 [8]: 22 µM (active) | EC50 [9]: 18 µM (active)

N=c1oc2c3c4c(cc2cc1C(=O)Nc1ccccc1)CCCN4CCC3
EC50 [10]: > 0.0109 µM (active) | EC50 [11]: > 0.0109 µM (active) | EC50 [12]: 8.27 µM (active)

Fc1ccc(CC2CCN(c3ncnc4sccc34)CC2)cc1
IC50 [13]: > 55.7 µM (inactive) | IC50 [14]: 2.54 µM (active)

CCCCN(Cc1cc2cc(Cl)ccc2[nH]c1=O)C(=O)c1ccccc1
EC50 [15]: > 20 µM (inactive)

CCC(CC)CN1C[C@@H]2C(CNC(=O)c3cc(Cl)cc(Cl)c3)[C@@H]2C1 (stereo partly specified)
EC50 [16]: 1.2 µM (active)

Fc1ccc(Nc2nc(NCc3ccco3)c3ccccc3n2)cc1
IC50 [17]: > 20 µM (inactive) | IC50 [18]: 1.93 µM (active) | EC50 [19]: 8.32 µM (active) | AC50 [20]: 1.93 µM (active) | IC50 [21]: 1.7 µM (active)
